Test results reported in patent publication US20230123334A1, “AMINO LIPID COMPOUND, PREPARATION METHOD THEREFOR, AND APPLICATION THEREOF” (SHENZHEN SHENXIN BIOTECHNOLOGY CO., LTD., priority 2020, published 2023).

Tested on: HEK293 cells
Experiment: Preliminary screening as DNA vectors, GFP transfection of HEK293 cells
Format: cell-based
Conditions: amino lipid/DOPE liposome with 75 ng plasmid DNA (psin-EGFP-IRES-Puro); number of GFP-expressing cells divided by total nuclei (Hoechst)
How it was run: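 HEK293 cells in DMEM/10% FBS transfected with 75 ng EGFP plasmid per well complexed with amino lipid/DOPE liposomes in pH 5.6 sodium acetate. Hoechst nuclear stain added 20-24 h post-transfection, then cells cultured another 20-24 h. Confocal imaging gives GFP-positive cells as % of total nuclei.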

Structure (SMILES)	Absolute DNA transfection efficiency in HEK293 cells [%]
CCCCCCCCCCCCCCCSc1nc(NCCCCCCCCC)nc(NCCCN(C)C)n1 [S15N9 D6]	23.1
CCCCCCCCCCCCCCCSc1nc(NCCCCCCCCC)nc(NCCN(CC)CC)n1 [S15N9 D7]	16.4
CCCCCCCCCCCCCCCSc1nc(NCCCCCCCCC)nc(NCCCN2CCOCC2)n1 [S15N9 D8]	10.1
CCCCCCCCCCCCCCCSc1nc(NCCCCCCCCC)nc(NCCCN2CCN(C)CC2)n1 [S15N9 D9]	13.4
CCCCCCCCCCCCCCCSc1nc(NCCCCCCCCC)nc(NCC2CCN(C)CC2)n1 [S15N9 D10]	35.1
CCCCCCCCCCCCCCCSc1nc(NCCCCCCCCCCC)nc(NCCN(C)C)n1 [S15N11 D1]	12.9
CCCCCCCCCCCCCCCSc1nc(NCCCCCCCCCCC)nc(NCCN2CCOCC2)n1 [S15N11 D2]	19.3
CCCCCCCCCCCCCCCSc1nc(NCCCCCCCCCCC)nc(NCCN2CCCC2)n1 [S15N11 D3]	20.9
CCCCCCCCCCCCCCCSc1nc(NCCCCCCCCCCC)nc(NCCN2CCCCC2)n1 [S15N11 D4]	8.9
CCCCCCCCCCCCCCCSc1nc(NCCCCCCCCCCC)nc(NCCN2CCN(C)CC2)n1 [S15N11 D5]	11.8
CCCCCCCCCCCCCCCSc1nc(NCCCCCCCCCCC)nc(NCCCN(C)C)n1 [S15N11 D6]	12.9
CCCCCCCCCCCCCCCSc1nc(NCCCCCCCCCCC)nc(NCCN(CC)CC)n1 [S15N11 D7]	9.3
CCCCCCCCCCCCCCCSc1nc(NCCCCCCCCCCC)nc(NCCCN2CCOCC2)n1 [S15N11 D8]	6.1
CCCCCCCCCCCCCCCSc1nc(NCCCCCCCCCCC)nc(NCCCN2CCN(C)CC2)n1 [S15N11 D9]	11.9
CCCCCCCCCCCCCCCSc1nc(NCCCCCCCCCCC)nc(NCC2CCN(C)CC2)n1 [S15N11 D10]	16.6
CCCCCCCCCCCCCCCSc1nc(NCCCCCCCCCCCC)nc(NCCN(C)C)n1 [S15N12 D1]	4.9
CCCCCCCCCCCCCCCSc1nc(NCCCCCCCCCCCC)nc(NCCN2CCOCC2)n1 [S15N12 D2]	0.0
CCCCCCCCCCCCCCCSc1nc(NCCCCCCCCCCCC)nc(NCCN2CCCC2)n1 [S15N12 D3]	11.5
CCCCCCCCCCCCCCCSc1nc(NCCCCCCCCCCCC)nc(NCCN2CCCCC2)n1 [S15N12 D4]	0.1
CCCCCCCCCCCCCCCSc1nc(NCCCCCCCCCCCC)nc(NCCN2CCN(C)CC2)n1 [S15N12 D5]	5.7
CCCCCCCCCCCCCCCSc1nc(NCCCCCCCCCCCC)nc(NCCCN(C)C)n1 [S15N12 D6]	6.4

Structure (SMILES)	Absolute DNA transfection efficiency in HEK293 cells [%]
CCCCCCCCCCCCCCCSc1nc(NCCCCCCCCCCCC)nc(NCCN(CC)CC)n1 [S15N12 D7]	5.9
CCCCCCCCCCCCCCCSc1nc(NCCCCCCCCCCCC)nc(NCCCN2CCOCC2)n1 [S15N12 D8]	1.5
CCCCCCCCCCCCCCCSc1nc(NCCCCCCCCCCCC)nc(NCCCN2CCN(C)CC2)n1 [S15N12 D9]	3.3
CCCCCCCCCCCCCCCSc1nc(NCCCCCCCCCCCC)nc(NCC2CCN(C)CC2)n1 [S15N12 D10]	4.3
CCCCCCCCCCCCCCCSc1nc(NCCCCCCCCCCCCC)nc(NCCN(C)C)n1 [S15N13 D1]	0.4
CCCCCCCCCCCCCCCSc1nc(NCCCCCCCCCCCCC)nc(NCCN2CCOCC2)n1 [S15N13 D2]	0.0
CCCCCCCCCCCCCCCSc1nc(NCCCCCCCCCCCCC)nc(NCCN2CCCC2)n1 [S15N13 D3]	4.2
CCCCCCCCCCCCCCCSc1nc(NCCCCCCCCCCCCC)nc(NCCN2CCCCC2)n1 [S15N13 D4]	0.0
CCCCCCCCCCCCCCCSc1nc(NCCCCCCCCCCCCC)nc(NCCN2CCN(C)CC2)n1 [S15N13 D5]	1.9
CCCCCCCCCCCCCCCSc1nc(NCCCCCCCCCCCCC)nc(NCCCN(C)C)n1 [S15N13 D6]	2.7
CCCCCCCCCCCCCCCSc1nc(NCCCCCCCCCCCCC)nc(NCCN(CC)CC)n1 [S15N13 D7]	5.5
CCCCCCCCCCCCCCCSc1nc(NCCCCCCCCCCCCC)nc(NCCCN2CCOCC2)n1 [S15N13 D8]	0.2
CCCCCCCCCCCCCCCSc1nc(NCCCCCCCCCCCCC)nc(NCCCN2CCN(C)CC2)n1 [S15N13 D9]	3.2
CCCCCCCCCCCCCCCSc1nc(NCCCCCCCCCCCCC)nc(NCC2CCN(C)CC2)n1 [S15N13 D10]	0.0
CCCCCCCCCCCCCCCNc1nc(NCCN(C)C)nc(SCCCCCCCCCCCCCCC)n1 [S15N15 D1]	0.6
CCCCCCCCCCCCCCCNc1nc(NCCN2CCOCC2)nc(SCCCCCCCCCCCCCCC)n1 [S15N15 D2]	0.0
CCCCCCCCCCCCCCCNc1nc(NCCN2CCCC2)nc(SCCCCCCCCCCCCCCC)n1 [S15N15 D3]	0.8
CCCCCCCCCCCCCCCNc1nc(NCCN2CCCCC2)nc(SCCCCCCCCCCCCCCC)n1 [S15N15 D4]	0.5
CCCCCCCCCCCCCCCNc1nc(NCCN2CCN(C)CC2)nc(SCCCCCCCCCCCCCCC)n1 [S15N15 D5]	0.4
CCCCCCCCCCCCCCCNc1nc(NCCCN(C)C)nc(SCCCCCCCCCCCCCCC)n1 [S15N15 D6]	0.0
CCCCCCCCCCCCCCCNc1nc(NCCN(CC)CC)nc(SCCCCCCCCCCCCCCC)n1 [S15N15 D7]	0.4

Structure (SMILES)	Absolute DNA transfection efficiency in HEK293 cells [%]
CCCCCCCCCCCCCCCNc1nc(NCCCN2CCOCC2)nc(SCCCCCCCCCCCCCCC)n1 [S15N15 D8]	0.1
CCCCCCCCCCCCCCCNc1nc(NCCCN2CCN(C)CC2)nc(SCCCCCCCCCCCCCCC)n1 [S15N15 D9]	0.5
CCCCCCCCCCCCCCCNc1nc(NCC2CCN(C)CC2)nc(SCCCCCCCCCCCCCCC)n1 [S15N15 D10]	0.3
CCCCCCCCCCCCCCCCNc1nc(NCCN(C)C)nc(SCCCCCCCCCCCCCCC)n1 [S15N16 D1]	1.3
CCCCCCCCCCCCCCCCNc1nc(NCCN2CCOCC2)nc(SCCCCCCCCCCCCCCC)n1 [S15N16 D2]	0.0
CCCCCCCCCCCCCCCCNc1nc(NCCN2CCCC2)nc(SCCCCCCCCCCCCCCC)n1 [S15N16 D3]	0.6
CCCCCCCCCCCCCCCCNc1nc(NCCN2CCCCC2)nc(SCCCCCCCCCCCCCCC)n1 [S15N16 D4]	0.4
CCCCCCCCCCCCCCCCNc1nc(NCCN2CCN(C)CC2)nc(SCCCCCCCCCCCCCCC)n1 [S15N16 D5]	0.2
CCCCCCCCCCCCCCCCNc1nc(NCCCN(C)C)nc(SCCCCCCCCCCCCCCC)n1 [S15N16 D6]	0.0
CCCCCCCCCCCCCCCCNc1nc(NCCN(CC)CC)nc(SCCCCCCCCCCCCCCC)n1 [S15N16 D7]	0.4
CCCCCCCCCCCCCCCCNc1nc(NCCCN2CCOCC2)nc(SCCCCCCCCCCCCCCC)n1 [S15N16 D8]	0.0
CCCCCCCCCCCCCCCCNc1nc(NCCCN2CCN(C)CC2)nc(SCCCCCCCCCCCCCCC)n1 [S15N16 D9]	0.2
CCCCCCCCCCCCCCCCNc1nc(NCC2CCN(C)CC2)nc(SCCCCCCCCCCCCCCC)n1 [S15N16 D10]	0.3
CCCCCCCCCCCCCCCCCCNc1nc(NCCN(C)C)nc(SCCCCCCCCCCCCCCC)n1 [S15N18 D1]	0.6
CCCCCCCCCCCCCCCCCCNc1nc(NCCN2CCOCC2)nc(SCCCCCCCCCCCCCCC)n1 [S15N18 D2]	0.0
CCCCCCCCCCCCCCCCCCNc1nc(NCCN2CCCC2)nc(SCCCCCCCCCCCCCCC)n1 [S15N18 D3]	0.7
CCCCCCCCCCCCCCCCCCNc1nc(NCCN2CCCCC2)nc(SCCCCCCCCCCCCCCC)n1 [S15N18 D4]	0.4
CCCCCCCCCCCCCCCCCCNc1nc(NCCN2CCN(C)CC2)nc(SCCCCCCCCCCCCCCC)n1 [S15N18 D5]	0.3
CCCCCCCCCCCCCCCCCCNc1nc(NCCCN(C)C)nc(SCCCCCCCCCCCCCCC)n1 [S15N18 D6]	0.3
CCCCCCCCCCCCCCCCCCNc1nc(NCCN(CC)CC)nc(SCCCCCCCCCCCCCCC)n1 [S15N18 D7]	0.9
